Laboratory results as given in US20070275988A1, “Transition state structure and inhibitors of thymidine phosphorylases” (priority 2003, published 2007).

Experiments:
[1] = FUra versus FdUrd; cited from earlier work
[2] = test system: angiogenesis; conditions: cited from earlier work
[3] = substrate: O=c1[nH]c(=O)n([C@H]2C[C@H](O)[C@@H](CO)O2)cc1[N+](=O)[O-]; experiment: UV-Vis spectrophotometric thymidine phosphorylase assay with 5NdU as substrate; assay type: biochemical; conditions: other: substrate, pH 6.01
Description: Binding constants were determined by UV-Vis spectrophotometery using 2′-deoxy-5-nitrouridine (5NdU) as the substrate (Km=50 μM at pH 6.01). The reaction mixture consisted of inhibitor (approximately 1/10×Ki to 10×Ki), 50 mM MES (pH 6.01), 150 mM NaCl, 1 mM EDTA, 5 mM inorganic phosphate, and 250 μM 5NdU in a total of 1 ml. Thymidine phosphorylase was added to approximately 10 nM (1 nM enzyme was used for D723333-P) and the reaction was monitored at λ=347 nm for 30 min. At least five concentrations of inhibitor were used for each compound and experiments were repeated in triplicate. Initial rates were determined by a linear least-squares fit. The Ki for each compound was then determined using the following equation: [formula] where ν is the rate of reaction and V is the maximal rate in the absence of inhibitor.

## O=c1[nH]cc(F)c(=O)[nH]1 [FUra, 5-fluorouracil]
[1]
  fold less potent than FdUrd: 100 to 1000 fold

## N=C1CCCN1Cc1[nH]c(=O)[nH]c(=O)c1Cl [TPI]
[2]
  antiangiogenic activity in vivo: some antiangiogenic activity in vivo

B1: Thymidine phosphorylase (Homo sapiens) (protein)
chain: APPAPGDFSGEGSQGLPDPSPEPKQLPELIRMKRDGGRLSEADIRGFVAAVVNGSAQGAQIGAMLMAIRLRGMDLEETSVLTQALAQSGQQLEWPEAWRQQLVDKHSTGGVGDKVSLVLAPALAACGCKVPMISGRGLGHTGGTLDKLESIPGFNVIQSPEQMQVLLDQAGCCIVGQSEQLVPADGILYAARDVTATVDSLPLITASILSKKLVEGLSALVVDVKFGGAAVFPNQEQARELAKTLVGVGASLGLRVAAALTAMDKPLGRCVGHALEVEEALLCMDGAGPPDLRDLVTTLGGALLWLSGHAGTQAQGAARVAAALDDGSALGRFERMLAAQGVDPGLARALCSGSPAERRQLLPRAREQEELLAPADGTVELVRALPLALVLHELGAGRSRAGEPLRLGVGAELLVDVGQRLRRGTPWLRVHRDGPALSGPQSRALQEALVLSDRAPFAAPSPFAELVLPPQQ
[3]
  Km: 50 µM
